Laboratory results reported in the NIST ThermoML archive (doi:10.1016/j.fluid.2005.07.017).
± gives the expanded uncertainty stated by the source.

Test: xn = mol fraction of the nth substance listed
Conditions: Liquid, Vibrating tube method

c1ccsc1 [thiophene] + O=C=O
Conditions | mass density [kg/m3]
332.85 K, 13009 kPa, x2 = 0.199 | 1012.87 ± 0.43
332.85 K, 13971 kPa, x2 = 0 | 1030.09 ± 0.44
332.85 K, 14005 kPa, x2 = 0.199 | 1014.1 ± 0.43
332.85 K, 15006 kPa, x2 = 0 | 1031.04 ± 0.44
332.85 K, 15042 kPa, x2 = 0.199 | 1015.31 ± 0.43
332.85 K, 15990 kPa, x2 = 0 | 1032.01 ± 0.44
332.85 K, 16037 kPa, x2 = 0.199 | 1016.53 ± 0.43
332.85 K, 17034 kPa, x2 = 0.199 | 1017.71 ± 0.43
332.85 K, 17050 kPa, x2 = 0 | 1033.03 ± 0.44
332.85 K, 17976 kPa, x2 = 0 | 1033.88 ± 0.44
332.85 K, 18013 kPa, x2 = 0.199 | 1018.85 ± 0.43
332.85 K, 19004 kPa, x2 = 0.199 | 1019.98 ± 0.43
332.85 K, 19018 kPa, x2 = 0 | 1034.92 ± 0.44
332.85 K, 20016 kPa, x2 = 0.199 | 1021.13 ± 0.43
332.93 K, 10438 kPa, x2 = 0.9217 | 603.48 ± 1.4
332.93 K, 11001 kPa, x2 = 0.9217 | 635.42 ± 1.1
332.93 K, 12001 kPa, x2 = 0.9217 | 673.08 ± 0.95
332.93 K, 13005 kPa, x2 = 0.9217 | 700.08 ± 0.83
332.93 K, 13949 kPa, x2 = 0.9217 | 720.24 ± 0.76
332.93 K, 15012 kPa, x2 = 0.9217 | 738.73 ± 0.71
332.93 K, 16019 kPa, x2 = 0.9217 | 754.17 ± 0.68
332.93 K, 17014 kPa, x2 = 0.9217 | 767.1 ± 0.65
332.93 K, 18009 kPa, x2 = 0.9217 | 778.74 ± 0.63
332.93 K, 18964 kPa, x2 = 0.9217 | 789.26 ± 0.61
332.93 K, 20027 kPa, x2 = 0.9217 | 798.89 ± 0.6
332.93 K, 21018 kPa, x2 = 0.9217 | 807.65 ± 0.59
332.93 K, 22031 kPa, x2 = 0.9217 | 815.99 ± 0.59
332.93 K, 23019 kPa, x2 = 0.9217 | 823.51 ± 0.57
332.93 K, 23954 kPa, x2 = 0.9217 | 830.07 ± 0.56
332.93 K, 25005 kPa, x2 = 0.9217 | 836.64 ± 0.55
332.96 K, 6987 kPa, x2 = 0.3818 | 977.03 ± 0.43
332.96 K, 8041 kPa, x2 = 0.3818 | 979.02 ± 0.43
332.96 K, 9012 kPa, x2 = 0.3818 | 980.85 ± 0.43
332.96 K, 10018 kPa, x2 = 0.3818 | 982.65 ± 0.43
332.96 K, 11007 kPa, x2 = 0.3818 | 984.44 ± 0.43
332.96 K, 12018 kPa, x2 = 0.3818 | 986.2 ± 0.43
332.96 K, 13030 kPa, x2 = 0.3818 | 987.96 ± 0.43
332.96 K, 13998 kPa, x2 = 0.3818 | 989.61 ± 0.43
332.96 K, 14969 kPa, x2 = 0.3818 | 991.25 ± 0.43
332.96 K, 16045 kPa, x2 = 0.3818 | 993.04 ± 0.42
332.96 K, 17024 kPa, x2 = 0.3818 | 994.61 ± 0.42
332.96 K, 18020 kPa, x2 = 0.3818 | 996.22 ± 0.42
332.96 K, 19050 kPa, x2 = 0.3818 | 997.85 ± 0.42
333.04 K, 9091 kPa, x2 = 0.6996 | 929.67 ± 0.44
333.04 K, 10017 kPa, x2 = 0.6996 | 932.84 ± 0.61
333.04 K, 11036 kPa, x2 = 0.6996 | 936.19 ± 0.59
333.04 K, 11989 kPa, x2 = 0.6996 | 939.22 ± 0.56
333.04 K, 13024 kPa, x2 = 0.6996 | 942.4 ± 0.54
333.04 K, 14004 kPa, x2 = 0.6996 | 945.28 ± 0.53
333.04 K, 14904 kPa, x2 = 0.6996 | 947.84 ± 0.52
333.04 K, 16043 kPa, x2 = 0.6996 | 951.03 ± 0.51
333.04 K, 17013 kPa, x2 = 0.6996 | 953.62 ± 0.5
333.04 K, 18048 kPa, x2 = 0.6996 | 956.36 ± 0.5
333.04 K, 19011 kPa, x2 = 0.6996 | 958.88 ± 0.73
333.15 K, 101 kPa, x2 = 0 | 1014.58 ± 0.44
342.66 K, 5097 kPa, x2 = 0.199 | 988.63 ± 0.43
342.66 K, 6031 kPa, x2 = 0.199 | 989.99 ± 0.43
342.66 K, 7084 kPa, x2 = 0.199 | 991.48 ± 0.43
342.66 K, 8010 kPa, x2 = 0.199 | 992.78 ± 0.43
342.66 K, 9020 kPa, x2 = 0.199 | 994.19 ± 0.43
342.66 K, 10077 kPa, x2 = 0.199 | 995.61 ± 0.43
342.66 K, 11049 kPa, x2 = 0.199 | 996.93 ± 0.43
342.66 K, 11932 kPa, x2 = 0.199 | 998.15 ± 0.43
342.66 K, 13009 kPa, x2 = 0.199 | 999.54 ± 0.43
342.66 K, 13997 kPa, x2 = 0.199 | 1000.84 ± 0.43
342.66 K, 14996 kPa, x2 = 0.199 | 1002.14 ± 0.43
342.66 K, 16043 kPa, x2 = 0.199 | 1003.48 ± 0.43
342.66 K, 17018 kPa, x2 = 0.199 | 1004.66 ± 0.43
342.66 K, 18018 kPa, x2 = 0.199 | 1005.93 ± 0.43
342.66 K, 19016 kPa, x2 = 0.199 | 1007.17 ± 0.43
342.66 K, 20032 kPa, x2 = 0.199 | 1008.42 ± 0.43
342.69 K, 9071 kPa, x2 = 0.5661 | 923.94 ± 0.44
342.69 K, 10000 kPa, x2 = 0.5661 | 926.85 ± 0.44
342.69 K, 11013 kPa, x2 = 0.5661 | 929.94 ± 0.44
342.69 K, 11994 kPa, x2 = 0.5661 | 932.85 ± 0.44
342.69 K, 13024 kPa, x2 = 0.5661 | 935.81 ± 0.44
342.69 K, 13996 kPa, x2 = 0.5661 | 938.48 ± 0.43
342.69 K, 15008 kPa, x2 = 0.5661 | 941.2 ± 0.43
342.69 K, 16016 kPa, x2 = 0.5661 | 943.82 ± 0.43
342.69 K, 17021 kPa, x2 = 0.5661 | 946.37 ± 0.43
342.69 K, 18030 kPa, x2 = 0.5661 | 948.87 ± 0.43
342.69 K, 19004 kPa, x2 = 0.5661 | 951.23 ± 0.43
342.77 K, 1039 kPa, x2 = 0 | 1004.75 ± 0.44
342.77 K, 2072 kPa, x2 = 0 | 1005.93 ± 0.44
342.77 K, 3033 kPa, x2 = 0 | 1007.02 ± 0.44
342.77 K, 4023 kPa, x2 = 0 | 1008.17 ± 0.44
342.77 K, 5027 kPa, x2 = 0 | 1009.26 ± 0.44
342.77 K, 6033 kPa, x2 = 0 | 1010.36 ± 0.44
342.77 K, 7008 kPa, x2 = 0 | 1011.44 ± 0.44
342.77 K, 7998 kPa, x2 = 0 | 1012.5 ± 0.44
342.77 K, 9005 kPa, x2 = 0 | 1013.59 ± 0.44
342.77 K, 10000 kPa, x2 = 0 | 1014.65 ± 0.44
342.77 K, 10963 kPa, x2 = 0 | 1015.65 ± 0.44
342.77 K, 12009 kPa, x2 = 0 | 1016.72 ± 0.44
342.77 K, 13023 kPa, x2 = 0 | 1017.82 ± 0.44
342.77 K, 13928 kPa, x2 = 0 | 1018.74 ± 0.44
342.77 K, 15009 kPa, x2 = 0 | 1019.83 ± 0.44
342.77 K, 15998 kPa, x2 = 0 | 1020.79 ± 0.44
342.77 K, 17025 kPa, x2 = 0 | 1021.8 ± 0.44
342.77 K, 17995 kPa, x2 = 0 | 1022.8 ± 0.44
342.77 K, 19013 kPa, x2 = 0 | 1023.79 ± 0.44
342.77 K, 20001 kPa, x2 = 0 | 1024.73 ± 0.44
342.91 K, 7074 kPa, x2 = 0.3818 | 959.84 ± 0.43
342.91 K, 7993 kPa, x2 = 0.3818 | 961.78 ± 0.43
342.91 K, 8982 kPa, x2 = 0.3818 | 963.81 ± 0.43
342.91 K, 10027 kPa, x2 = 0.3818 | 965.93 ± 0.43
